Assay: mn = molality of the nth substance listed, in mol/kg
Conditions: 101 kPa, Liquid; for viscosity: Capillary tube (Ostwald / Ubbelohde) method; for mass density: Vibrating tube method

Cc1ccc(N)cc1N [4-methyl-1,3-benzendiamine] + CCO
Conditions	mass density, 293.15 K [kg/m3]	mass density, 303.15 K [kg/m3]	mass density, 313.15 K [kg/m3]	mass density, 323.15 K [kg/m3]	mass density, 333.15 K [kg/m3]	viscosity, 293.15 K [mPa·s]	viscosity, 303.15 K [mPa·s]	viscosity, 313.15 K [mPa·s]	viscosity, 323.15 K [mPa·s]	viscosity, 333.15 K [mPa·s]
m1 = 0.0503	791.4	782.79	774	765.08	755.96	1.196	0.982	0.815	0.68	0.571
m1 = 0.0999	793.18	784.54	775.74	766.82	757.7	1.208	0.995	0.821	0.685	0.576
m1 = 0.1497	794.92	786.27	777.46	768.52	759.41	1.224	1.004	0.829	0.691	0.579
m1 = 0.1994	796.64	787.95	779.14	770.21	761.1	1.236	1.015	0.836	0.696	0.583
m1 = 0.2494	798.32	789.63	780.81	771.88	762.76	1.252	1.027	0.845	0.703	0.588
m1 = 0.2997	799.96	791.27	782.46	773.52	764.42	1.265	1.037	0.853	0.708	0.592
m1 = 0.3496	801.58	792.88	784.07	775.13	766.03	1.28	1.046	0.861	0.714	0.597
m1 = 0.3994	803.15	794.44	785.66	776.73	767.62	1.293	1.059	0.868	0.72	0.601
m1 = 0.4496	804.71	796.01	787.24	778.31	769.19	1.31	1.068	0.877	0.727	0.607
m1 = 0.4995	806.25	797.53	788.77	779.84	770.7	1.323	1.079	0.883	0.731	0.61
m1 = 0.5492	807.75	799.06	790.28	781.37	772.2	1.34	1.09	0.893	0.739	0.616
m1 = 0.5989	809.18	800.53	791.76	782.81	773.66	1.353	1.101	0.899	0.743	0.619

Cc1c(N)cccc1N [2,6-diaminotoluene] + CCCO
Conditions	mass density, 293.15 K [kg/m3]	mass density, 303.15 K [kg/m3]	mass density, 313.15 K [kg/m3]	mass density, 323.15 K [kg/m3]	mass density, 333.15 K [kg/m3]	viscosity, 293.15 K [mPa·s]	viscosity, 303.15 K [mPa·s]	viscosity, 313.15 K [mPa·s]	viscosity, 323.15 K [mPa·s]	viscosity, 333.15 K [mPa·s]
m1 = 0.0501	805.5	797.18	789	780.63	772.03	2.19	1.709	1.348	1.074	0.864
m1 = 0.0997	807.1	798.78	790.58	782.21	773.6	2.209	1.72	1.355	1.079	0.869
m1 = 0.1498	808.7	800.36	792.16	783.77	775.16	2.226	1.734	1.365	1.086	0.874
m1 = 0.1995	810.26	801.92	793.7	785.32	776.68	2.245	1.744	1.372	1.092	0.878
m1 = 0.2499	811.81	803.46	795.23	786.83	778.21	2.268	1.759	1.383	1.099	0.883
m1 = 0.2994	813.34	804.95	796.73	788.33	779.69	2.282	1.77	1.391	1.106	0.888
m1 = 0.3496	814.83	806.45	798.21	789.79	781.15	2.305	1.789	1.401	1.112	0.893

Source: the NIST ThermoML archive (doi:10.1021/je400968v)
